Experiments:
H5N1 A/Vietnam/1203/04 = test: microbe, parasite or virus in culture; type: cell-based, influenza A virus; details: Influenza A virus, H5N1, MDCK, 96 h, read-out: Virus neutralization assay (VNA), pEC50 H5N1 A/Vietnam/1203/04, MDCK cells, 96 h, CPE by ATPlite (converted); average of repeats
[1] = test system: H1N1 A/New Caledonia/20/99; test: microbe, parasite or virus in culture; type: cell-based, influenza A virus; details: Influenza A virus, H1N1, MDCK, 96 h, read-out: Virus neutralization assay (VNA), pEC50 H1N1 A/New Caledonia/20/99 (converted)
[2] = target: HA H5 A/Vietnam/1203/04 (Influenza A virus (A/Vietnam/1203/2004(H5N1)), UniProt Q5EP31); test: biochemical; details: Competition binding (AlphaLISA), pIC50 H5 A/Vietnam/1203/04
[3] = target: HA H1 A/New Caledonia/20/99 (Influenza A virus (A/New Caledonia/20/1999(H1N1)), UniProt Q6WG00); test: biochemical; details: Competition binding (AlphaLISA), pIC50 H1 A/New Caledonia/20/99
[4] = target: HA H1 A/California/07/09 (Influenza A virus (A/California/07/2009(H1N1)), UniProt C3W5X2); test: biochemical; details: Competition binding (AlphaLISA), pIC50 H1 A/California/07/09
in vitro = details: dog, Cytotoxicity (pCC50) MDCK
H1N1 A/California/07/09 = test: microbe, parasite or virus in culture; type: cell-based, influenza A virus; details: Influenza A virus, H1N1, MDCK, 96 h, read-out: Virus neutralization assay (VNA), pEC50 H1N1 A/California/07/09 (converted)

Row | Compound | EC50 (H5N1 A/Vietnam/1203/04) [µM] | EC50 [1] [µM] | IC50 [2] [µM] | IC50 [3] [µM] | IC50 [4] [µM] | CC50 (in vitro) [µM] | EC50 (H1N1 A/California/07/09) [µM]
1 | COC(=O)C(c1ccccc1)N1CCN(C(=O)c2cccc(-c3nc4cc(OC5CC5)ccc4o3)c2)CC1 (stereo not drawn) [Example 1, Methyl 2-(4-(3-(5-cyclopropoxybenzo[d]oxazol-2-yl)benzoyl)piperazin-1-yl)-2-phenylacetate] | 0.2 | 0.00251 | 0.0631 | 0.000631 | 0.00126 | > 50.1 | 0.00251
2 | CC(=O)Nc1ccc2oc(-c3ccnc(C(=O)N4CCN([C@H](c5ccccc5)c5n[nH]c(C)n5)CC4)c3)nc2c1 [Example 2] | 1 | 0.00251 | 0.158 | 0.00501 | 0.00794 | > 50.1 | 0.01
3 | COc1nnc([C@@H](c2ccccc2)N2CCN(C(=O)c3cc(-c4nc5cc(OC(F)(F)F)ccc5o4)ccn3)CC2)o1 [Example 4] | 1.26 | 0.0794 | 0.1 | 0.00794 | 0.0126 | > 50.1 | 0.1
4 | CC(=O)Nc1ccc2oc(-c3ccnc(C(=O)N4CCN(C(c5ccccc5)c5n[nH]c(C)n5)CC4)c3)nc2c1 (stereo not drawn) [Example 5] | 1.26 | 0.00631 | 0.501 | 0.0158 | 0.0251 | > 50.1 | 0.0158
5 | CC(=O)Nc1ccc2oc(-c3cccc(C(=O)N4CCN(C(c5ccccc5)c5n[nH]c(C)n5)CC4)c3)nc2c1 (stereo not drawn) [Example 6] | 12.6 | 0.00631 | 0.501 | 0.01 | 0.02 | > 50.1 | 0.02
6 | COC(=O)C(c1ccccc1)N1CCN(C(=O)c2cccc(-c3nc4cc(NC(C)=O)ccc4o3)c2)CC1 (stereo not drawn) [Example 7] | 1.58 | 0.0251 | 0.158 | 0.00316 | 0.00631 | 31.6 | 0.0251
7 | COC(=O)[C@@H](c1ccccc1)N1CCN(C(=O)c2cccc(-c3nc4cc(OC)ccc4o3)c2)CC1 [Example 8] | 1.26 | 0.0316 | 0.2 | 0.00398 | 0.00631 | > 50.1 | 0.0398
8 | CNc1ccc2oc(-c3cccc(C(=O)N4CCN(C(C(=O)OC)c5ccccc5)CC4)c3)nc2c1 (stereo not drawn) [Example 9] | 1.58 | 0.0398 | 0.251 | 0.00398 | 0.00631 | 10 | 0.0631
9 | COC(=O)C(c1ccccc1)N1CCN(C(=O)c2cccc(-c3nc4cc(N)ccc4o3)c2)CC1 (stereo not drawn) [Example 10] | 2.51 | 0.0501 | 0.794 | 0.0158 | 0.0251 | 25.1 | 0.0794
10 | COC(=O)C(c1ccccc1)N1CCN(C(=O)c2cccc(-c3nc4cc(N(C)C)ccc4o3)c2)CC1 (stereo not drawn) [Example 11] | 1.26 | 0.0501 | 0.316 | 0.00631 | 0.00794 | 3.98 | 0.0794
11 | Cc1nnc([C@@H](c2ccccc2)N2CCN(C(=O)c3cc(-c4nc5cc(OC(F)(F)F)ccc5o4)ccn3)CC2)o1 [Example 12] | 1.26 | 0.0398 | 0.158 | 0.00794 | 0.00631 | 15.8 | 0.0398
12 | COC(=O)C(c1ccccc1)N1CCN(C(=O)c2cccc(-c3nc4cc(OC)ccc4o3)c2)CC1 (stereo not drawn) [Example 13] | 3.16 | 0.0501 | 0.501 | 0.00631 | 0.00794 | 50.1 | 0.0794
13 | COC(=O)C(c1ccccc1)N1CCN(C(=O)c2cc(-c3nc4ccc(OC)cc4s3)ccn2)CC1 (stereo not drawn) [Example 14] | 1 | 0.0631 | 0.126 | 0.01 | 0.02 | 15.8 | 0.126
14 | CC(=O)Nc1ccc2oc(-c3ccnc(C(=O)N4CCN([C@H](c5ccccc5)c5nnc(C)o5)CC4)c3)nc2c1 [Example 15] | 7.94 | 0.0398 | 0.158 | 0.00631 | 0.00316 | > 50.1 | 0.158
15 | COC(=O)C(c1ccccc1)N1CCN(C(=O)c2cc(-c3nc4cc(C(F)(F)F)ccc4o3)ccn2)CC1 (stereo not drawn) [Example 16] | 3.16 | 0.0794 | 0.398 | 0.0158 | 0.0158 |  | 0.0794
16 | Cc1nnc([C@@H](c2ccccc2)N2CCN(C(=O)c3cc(-c4nc5cc(C(F)(F)F)ccc5o4)ccn3)CC2)o1 [Example 17] | 3.98 | 0.2 | 0.631 | 0.0316 | 0.0158 | 7.94 | 0.126
17 | Cc1coc(C(c2ccccc2)N2CCN(C(=O)c3cc(-c4nc5cc(OC(F)(F)F)ccc5o4)ccn3)CC2)n1 (stereo not drawn) [Example 18] | 20 | 0.0794 | 0.398 | 0.02 | 0.0398 | > 50.1 | 0.2
18 | Cc1cnc(C(c2ccccc2)N2CCN(C(=O)c3cc(-c4nc5cc(OC(F)(F)F)ccc5o4)ccn3)CC2)o1 (stereo not drawn) [Example 20] | 7.94 | 0.1 | 0.501 | 0.02 | 0.0126 | 25.1 | 0.0794
19 | COc1nnc(C(c2ccccc2)N2CCN(C(=O)c3cc(-c4nc5cc(OC(F)(F)F)ccc5o4)ccn3)CC2)o1 (stereo not drawn) [Example 21] | 6.31 | 0.0794 | 0.794 | 0.02 | 0.0158 | 12.6 | 0.1
20 | COC(=O)C(c1ccccc1)N1CCN(C(=O)c2cccc(-c3nc4cc(OC(F)(F)F)ccc4o3)c2)CC1 (stereo not drawn) [Example 23] | 20 | 0.126 | 0.398 | 0.01 | 0.02 | > 50.1 | 0.158
21 | COC(=O)C(c1ccccc1)N1CCN(C(=O)c2cccc(-c3nc4ncccc4o3)c2)CC1 (stereo not drawn) [Example 24] | 12.6 | 0.126 | 3.16 | 0.0398 | 0.0631 | > 50.1 | 0.158
22 | COc1ccc2oc(-c3ccnc(C(=O)N4CCN(C(c5ccccc5)c5nnc(C)o5)CC4)c3)nc2c1 (stereo not drawn) [Example 25] | 3.98 | 0.0794 | 0.794 | 0.0251 | 0.0158 | 25.1 | 0.0631
23 | COC(=O)[C@@H](c1ccccc1)N1CCN(C(=O)c2cccc(-c3nc4cc(C(F)(F)F)ccc4o3)c2)CC1 [Example 26] | 7.94 | 0.158 | 0.501 | 0.02 | 0.0251 | > 50.1 | 0.158
24 | Cc1nnc(C(c2ccccc2)N2CCN(C(=O)c3cc(-c4nc5cc(OC(F)(F)F)ccc5o4)ccn3)CC2)o1 (stereo not drawn) [Example 28] | 3.98 | 0.158 | 0.501 | 0.02 | 0.0158 | 15.8 | 0.2
25 | COC(=O)C(c1ccccc1)N1CCN(C(=O)c2cccc(-c3nc4cc(O)ccc4o3)c2)CC1 (stereo not drawn) [Example 30] | 7.94 | 0.158 | 0.631 | 0.0251 | 0.0251 | 25.1 | 0.251
26 | Cc1nnc(C(c2ccccc2)N2CCN(C(=O)c3cc(-c4nc5ccccc5s4)ccc3F)CC2)o1 (stereo not drawn) [Example 48] | > 50.1 | 0.316 | 12.6 | 0.2 | 0.251 |  | 0.631
27 | Cc1nnc(C(c2ccccc2)N2CCN(C(=O)c3cc(-c4nc5ccccc5o4)ccc3F)CC2)o1 (stereo not drawn) [Example 52] | > 50.1 | 0.398 | 20 | 0.2 | 0.2 |  | 0.631
28 | Cc1nnc([C@@H](c2ccccc2)N2CCN(C(=O)[C@H]3CCCN(c4nc5cc(C(F)(F)F)ccc5o4)C3)CC2)o1 [Example 96] | 50.1 | 1 | 15.8 | 0.316 | 0.2 |  | 0.794
29 | Cc1nnc(C(c2ccccc2)N2CCN(C(=O)c3ccnc(-c4nc5cc(C(F)(F)F)ccc5o4)c3)CC2)o1 (stereo not drawn) [Example 101] | > 50.1 | 1 | 39.8 | 0.794 | 0.631 |  | 2
30 | Cc1nnc(C(c2ccccc2)N2CCN(C(=O)[C@H]3CCCN(c4nc5cc(C(F)(F)F)ccc5o4)C3)CC2)o1 (stereo partly drawn) [Example 110] | > 50.1 | 1.26 | 50.1 | 0.794 | 0.398 |  | 1.26

— patent US11040963B2 (priority 2017, dated 2021)
